This note sets out measurements from patent US8614324B2, “Filamin A binding anti-inflammatory and analgesic” (priority 2008, dated 2013).

Molecules are shown by their SMILES.

This test has as its target T1, mu opiate receptor (MOR) (Rattus norvegicus, UniProt P33535).
T1 construct: from tissue; host or cells: striatal membrane preparation (rat striatum)
The experiment in a line: MOR agonist activity, [35S]GTPγS binding assay using striatal membranes. It counts as biochemical. Also noted: MOR agonist activity, [35S]GTPγS binding to Gαo: reference not given here. The procedure:
To assess the mu opiate receptor (MOR) agonist activity of positive compounds from the FLNA screening, compounds were tested in a [^35S]GTPγS binding assay using striatal membranes.
Striatal tissue was homogenized in 10 volumes of ice cold 25 mM HEPES buffer, pH 7.4, which contained 1 mM EGTA, 100 mM sucrose, 50 μg/ml leupeptin, 0.04 mM PMSF, 2 μg/ml soybean trypsin inhibitor and 0.2% 2-mercaptoethanol. The homogenates were centrifuged at 800×g for 5 minutes and the supernatants were centrifuged at 49,000×g for 20 minutes. The resulting pellets were suspended in 10 volume of reaction buffer, which contained 25 mM HEPES, pH 7.5, 100 mM NaCl, 50 μg/ml leupeptin, 2 μg/ml soybean trypsin inhibitor, 0.04 mM PMSF and 0.02% […].
The resultant striatal membrane preparation (200 μg) was admixed and maintained (incubated) at 30° C. for 5 minutes in reaction buffer as above that additionally contained 1 mM MgCl2 and 0.5 nM [^35S]GTPγS (0.1 μCi/assay, PerkinElmer Life and Analytical Sciences) in a total volume of 250 μl and continued for 5 minutes in the absence or presence of 0.1-10 μM of an assayed compound of interest. The reaction was terminated by dilution with 750 μl of ice-cold reaction buffer that contained 20 mM MgCl2 and 1 mM EGTA and immediate centrifugation at 16,000×g for 5 minutes.
The resulting pellet was solubilized by sonicating for 10 seconds in 0.5 ml of immunoprecipitation buffer containing 0.5% digitonin, 0.2% sodium cholate and 0.5% NP-40. Normal rabbit serum (1 μl) was added to 1 ml of lysate and incubated at 25° C. for 30 minutes. Nonspecific immune complexes were removed by incubation with 25 μl of protein A/G-conjugated agarose beads at 25° C. for 30 minutes followed by centrifugation at 5,000×g at 4° C. for 5 minutes. The supernatant was divided and separately incubated at 25° C. for 30 minutes with antibodies raised against Gαo proteins (1:1,000 dilutions).
The immunocomplexes so formed were collected by incubation at 25° C. for 30 minutes with 40 μl of agarose-conjugated protein A/G beads and centrifugation at 5,000×g at 4° C. for 5 minutes. The pellet was washed and suspended in buffer containing 50 mM Tris-HCl, pH 8.0, and 1% NP-40. The radioactivity in the suspension was determined by liquid scintillation spectrometry. […] DAMGO (H-Tyr-D-Ala-Gly-N-MePhe-Gly-OH; 1 or 10 μM) was used as a positive control.
For orientation: Binding of GTPγS marks nucleotide exchange on a G protein.

The mark [1] stands for this setting: 0.1 μM compound, striatal membranes.
The mark [2] stands for this setting: 1 μM compound + BFNA (1 μM β-funaltrexamine).
[3] abbreviates: 1 μM compound, striatal membranes.

T1 sequence (P33535 whole entry): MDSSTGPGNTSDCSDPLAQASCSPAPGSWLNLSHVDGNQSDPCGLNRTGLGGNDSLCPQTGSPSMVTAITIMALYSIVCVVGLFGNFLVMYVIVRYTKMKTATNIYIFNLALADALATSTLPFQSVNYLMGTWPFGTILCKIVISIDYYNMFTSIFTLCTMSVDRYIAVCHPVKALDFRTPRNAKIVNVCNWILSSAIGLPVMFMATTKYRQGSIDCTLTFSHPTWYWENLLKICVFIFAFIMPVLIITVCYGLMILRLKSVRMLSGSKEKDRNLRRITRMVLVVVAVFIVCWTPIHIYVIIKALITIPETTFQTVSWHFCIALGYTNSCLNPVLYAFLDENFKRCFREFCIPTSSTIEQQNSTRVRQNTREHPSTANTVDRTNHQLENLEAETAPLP

`O=C1CN(C2CCc3ccccc3C2)C2(CCN(S(=O)(=O)c3ccccc3)CC2)N1` (stereo not drawn) [C0136M(P5)]: the “MOR agonist activity, [35S]GTPγS binding to Gαo” value (“MOR agonist activity” for short) is on record as 176.8% under setting [1], 74.5% under setting [2] and 237.3% under setting [3].

For the compound `O=C1CN(Cc2ccccc2)C2(CCN(C3CCCCC3)CC2)N1` [C0137M(P7)], the “MOR agonist activity” value by setting is: under setting [1], 180.8%; under setting [2], 55.8%; under setting [3], 193.8%.

With `COc1ccc(S(=O)(=O)N2CCC3(CC2)NCCO3)cc1` [Compound C0026], the “MOR agonist activity” value turned out to be 207.2% under setting [1], 21.2% under setting [2] and 288.4% under setting [3].

For `COc1ccc(S(=O)(=O)N2CCOC23CCNCC3)cc1` [Compound C0027], the “MOR agonist activity” value under setting [1] worked out at 233.2%; the “MOR agonist activity” value under setting [2] is given as 72.2%; the “MOR agonist activity” value under setting [3] came out at 313.9%.

In the case of `O=[N+]([O-])c1ccc(S(=O)(=O)N2CCC3(CC2)NCCO3)cc1` [Compound C0040], the “MOR agonist activity” value reads like this: under setting [1], 145.8%; under setting [2], 90.4%; under setting [3], 308.3%.

Take `O=[N+]([O-])c1ccc(S(=O)(=O)N2CCC3(CC2)NCCS3)cc1` [Compound C0044]: the “MOR agonist activity” value by setting is: under setting [1], 173.7%; under setting [2], 59.1%; under setting [3], 280.1%.

For the compound `CC(=O)c1ccc(S(=O)(=O)N2CCOC23CCNCC3)cc1` [Compound C0046], the “MOR agonist activity” value stood at 286.2% under setting [1], 156.8% under setting [2] and 492.9% under setting [3].

Turning to `CC(=O)N1CCSC12CCN(S(=O)(=O)c1ccc([N+](=O)[O-])cc1)CC2` [Compound C0050], the “MOR agonist activity” value runs as follows: under setting [1], 110.3%; under setting [2], 59.0%; under setting [3], 127.6%.

Regarding `CC(=O)c1ccc(S(=O)(=O)N2CCC3(CC2)OCCN3S(C)(=O)=O)cc1` [Compound C0056], the “MOR agonist activity” value by setting is: under setting [1], 98.6%; under setting [2], 86.3%; under setting [3], 193.4%.

Consider `CC(=O)c1ccc(S(=O)(=O)N2CCC3(CC2)NCCS3)cc1` [Compound C0060], for which the “MOR agonist activity” value is listed as 166.5% under setting [1], 143.9% under setting [2] and 218.9% under setting [3].

On to `CC(=O)c1ccc(S(=O)(=O)N2CC(=O)NC23CCNCC3)cc1` [Compound C0086M], for which the “MOR agonist activity” value runs as follows: under setting [1], 206.8%; under setting [2], 152.3%; under setting [3], 265.3%.

For the compound `CC(=O)c1ccc(S(=O)(=O)N2CCC3(CC2)NC(=O)CO3)cc1` [Compound C0087M], the “MOR agonist activity” value was determined as 262.8% under setting [1], 142.5% under setting [2] and 329.6% under setting [3].

As for `COc1ccc(S(=O)(=O)N2CCOC23CCN(C)CC3)cc1` [Compound C0088M], the “MOR agonist activity” value runs as follows: under setting [1], 276.3%; under setting [2], 177.1%; under setting [3], 355.3%.

Regarding `CCN1CCC2(CC1)OCCN2S(=O)(=O)c1ccc(OC)cc1` [Compound C0089M], the “MOR agonist activity” value runs as follows: under setting [1], 234.5%; under setting [2], 81.9%; under setting [3], 295.3%.

Take `COc1ccc(S(=O)(=O)N2CCOC23CCN(CC2CC2)CC3)cc1` [Compound C0090M]: the “MOR agonist activity” value stood at 237.0% under setting [1], 41.0% under setting [2] and 341.0% under setting [3].

On to `C=CCN1CCC2(CC1)OCCN2S(=O)(=O)c1ccc(OC)cc1` [Compound C0091M], for which the “MOR agonist activity” value is given as 207.9% under setting [1], 80.8% under setting [2] and 274.4% under setting [3].

For the compound `CC(=O)c1ccc(S(=O)(=O)N2CCOC23CCN(C)CC3)cc1` [Compound C0093M], the “MOR agonist activity” value runs as follows: under setting [1], 140.0%; under setting [2], 44.0%; under setting [3], 211.8%.

In the case of `CCN1CCC2(CC1)OCCN2S(=O)(=O)c1ccc(C(C)=O)cc1` [Compound C0094M], the “MOR agonist activity” value turned out to be 172.5% under setting [1], 115.3% under setting [2] and 263.5% under setting [3].

With `CC(=O)c1ccc(S(=O)(=O)N2CCOC23CCN(CC2CC2)CC3)cc1` [Compound C0095M], the “MOR agonist activity” value is recorded as 189.1% under setting [1], 107.7% under setting [2] and 224.6% under setting [3].

`C=CCN1CCC2(CC1)OCCN2S(=O)(=O)c1ccc(C(C)=O)cc1` [Compound C0096M]: the “MOR agonist activity” value was found to be 186.4% under setting [1], 127.1% under setting [2] and 328.9% under setting [3].

As for `CCOC(=O)CN1CCC2(CC1)OCCN2S(=O)(=O)c1ccc(C(C)=O)cc1` [Compound C0099M], the “MOR agonist activity” value under setting [1] is 157.2%; the “MOR agonist activity” value under setting [2] is listed as 114.7%; the “MOR agonist activity” value under setting [3] is listed as 195.7%.

Take `CC(=O)c1ccc(S(=O)(=O)N2CCOC23CCN(CC(=O)O)CC3)cc1` [Compound C0100M]: the “MOR agonist activity” value reads like this: under setting [1], 173.6%; under setting [2], 195.6%; under setting [3], 245.9%.

For the compound `CCCCN1CCC2(CC1)OCCN2S(=O)(=O)c1ccc(C(C)=O)cc1` [Compound C0101M], the “MOR agonist activity” value was determined as 138.2% under setting [1], 174.8% under setting [2] and 274.3% under setting [3].

As to `CCCCN1CCC2(CC1)OCCN2S(=O)(=O)c1ccc(OC)cc1` [Compound C0102M], the “MOR agonist activity” value by setting is: under setting [1], 131.8%; under setting [2], 150.4%; under setting [3], 272.0%.

Consider `CN1CCC2(CC1)NC(=O)CN2Cc1ccccc1` [Compound C0104M], for which the “MOR agonist activity” value under setting [1] amounted to 188.2%; the “MOR agonist activity” value under setting [2] is recorded as 143.8%; the “MOR agonist activity” value under setting [3] turned out to be 238.9%.

As to `CN1CCC2(CC1)NCC(=O)N2Cc1ccccc1` [Compound C0105M], the “MOR agonist activity” value is on record as 198.1% under setting [1], 73.1% under setting [2] and 220.3% under setting [3].

With `CN1CCC2(CC1)OCCN2S(=O)(=O)c1ccc(S(C)(=O)=O)cc1` [Compound C0106M], the “MOR agonist activity” value is, setting by setting: under setting [1], 171.8%; under setting [2], 117.2%; under setting [3], 240.7%.

Turning to `CC(=O)c1ccc(S(=O)(=O)N2CC(CN(C)C)OC23CCN(C)CC3)cc1` (stereo not drawn) [Compound C0108M], the “MOR agonist activity” value is recorded as 205.6% under setting [1], 76.9% under setting [2] and 258.5% under setting [3].

Take `O=C1CNC2(CCNCC2)N1Cc1ccccc1` [Compound C0114M]: the “MOR agonist activity” value came to 114.0% under setting [1], 35.9% under setting [2] and 144.3% under setting [3].

As to `O=C1CN(Cc2ccccc2)C2(CCNCC2)N1` [Compound C0115M], the “MOR agonist activity” value is on record as 177.2% under setting [1], 118.4% under setting [2] and 226.8% under setting [3].
